Where two headings read alike, the source gives them in different places.
Tests used:
[1] = system: Plasmodium berghei (Pb-Luc) exoerythrocytic-stage parasites; assay: microbe, parasite or virus in culture
HepG2-A16-CD81EGFP cells = conditions: for HepG2 Tox% @ 50 uM rep1 / HepG2 Tox% @ 50 uM rep2: human
[2] = system: Plasmodium berghei (Pb-Luc) exoerythrocytic-stage parasites
[3] = read-out: Inhibition% @ 50 uM rep1
[4] = read-out: Inhibition% @ 50 uM rep2

SMILES: O=C(CCc1ccccc1)c1ccccc1OCC(O)CN1CCCCC1 (centres unmarked) [MMV009015]
- inhibition at 50 µM [1, 3]: 99%
- inhibition at 50 µM [1, 4]: 100%
- HepG2 Tox% @ 50 uM rep1 (HepG2-A16-CD81EGFP cells): 97%

SMILES: COc1nc(Nc2ccc(C(C)C)cc2)nc(OC)n1 [MMV007808]
- inhibition at 50 µM [1, 3]: 101%
- inhibition at 50 µM [1, 4]: 96%
- HepG2 Tox% @ 50 uM rep1 (HepG2-A16-CD81EGFP cells): 94%
- HepG2 Tox% @ 50 uM rep2 (HepG2-A16-CD81EGFP cells): 95%

SMILES: Oc1ccc2ccccc2c1CNc1nc2ccccc2[nH]1 [MMV011832]
- inhibition at 50 µM [1, 3]: 99%
- inhibition at 50 µM [1, 4]: 101%
- HepG2 Tox% @ 50 uM rep1 (HepG2-A16-CD81EGFP cells): 100%

SMILES: COc1ccc(C=C2SC(Nc3ccc(F)cc3)=NC2=O)c(OC)c1 [MMV084434]
- inhibition at 50 µM [1, 3]: 103%
- inhibition at 50 µM [1, 4]: 104%
- HepG2 Tox% @ 50 uM rep1 (HepG2-A16-CD81EGFP cells): 100%

SMILES: CC(C)CNC(=O)c1c(N)n(CCc2ccccc2F)c2nc3ccccc3nc12 [MMV396744]
- inhibition at 50 µM [1, 3]: 101%
- inhibition at 50 µM [1, 4]: 103%
- HepG2 Tox% @ 50 uM rep1 (HepG2-A16-CD81EGFP cells): 99%
- HepG2 Tox% @ 50 uM rep2 (HepG2-A16-CD81EGFP cells): 99%

SMILES: COc1ccc(C(=O)Nc2ccc3nc(N4CCCCC4)cc(C)c3c2)cc1OC [MMV019758]
- inhibition at 50 µM [1, 3]: 104%
- inhibition at 50 µM [1, 4]: 104%
- HepG2 Tox% @ 50 uM rep1 (HepG2-A16-CD81EGFP cells): 101%
- HepG2 Tox% @ 50 uM rep2 (HepG2-A16-CD81EGFP cells): 101%

SMILES: FC(F)(F)c1cccc(CNC2CCN(CCc3ccccc3)CC2)c1 [MMV665979]
- inhibition at 50 µM [1, 3]: 101%
- inhibition at 50 µM [1, 4]: 99%
- HepG2 Tox% @ 50 uM rep1 (HepG2-A16-CD81EGFP cells): 99%
- HepG2 Tox% @ 50 uM rep2 (HepG2-A16-CD81EGFP cells): 99%

SMILES: CCOc1cc2c(cc1OCC)C(c1cc(Cl)ccc1O)NCC2 (centres unmarked) [MMV000478]
- inhibition at 50 µM [1, 3]: 103%
- inhibition at 50 µM [1, 4]: 104%
- HepG2 Tox% @ 50 uM rep1 (HepG2-A16-CD81EGFP cells): 101%

SMILES: CCCCC(O)(c1ccc(Cl)cc1)C(CN1CCOCC1)c1ccc(Cl)cc1 (centres unmarked) [MMV000619]
- inhibition at 50 µM [1, 3]: 99%
- inhibition at 50 µM [1, 4]: 100%
- HepG2 Tox% @ 50 uM rep1 (HepG2-A16-CD81EGFP cells): 97%

SMILES: CCOc1ccc2nc(C)cc(Nc3ccc(N(C)C)cc3)c2c1 [MMV007020]
- inhibition at 50 µM [1, 3]: 100%
- inhibition at 50 µM [1, 4]: 101%
- HepG2 Tox% @ 50 uM rep1 (HepG2-A16-CD81EGFP cells): 97%

SMILES: COc1ccc2nc(N)nc(C)c2c1 [MMV665897]
- inhibition at 50 µM [1, 3]: 100%
- inhibition at 50 µM [1, 4]: 101%
- HepG2 Tox% @ 50 uM rep1 (HepG2-A16-CD81EGFP cells): 97%

SMILES: COc1ccc2nc(C)cc(Nc3cccc(O)c3)c2c1 [MMV008212]
- inhibition at 50 µM [1, 3]: 99%
- inhibition at 50 µM [1, 4]: 102%
- HepG2 Tox% @ 50 uM rep1 (HepG2-A16-CD81EGFP cells): 99%

SMILES: COc1cc(-c2nc(-c3ccccc3)c(-c3ccccc3)[nH]2)cc(OC)c1O [MMV020750]
- inhibition at 50 µM [1, 3]: 103%
- inhibition at 50 µM [1, 4]: 104%
- HepG2 Tox% @ 50 uM rep1 (HepG2-A16-CD81EGFP cells): 102%

SMILES: CCC(O)c1ccc(Br)cc1NC(=O)c1cccc(Cl)c1 (centres unmarked) [MMV020654]
- inhibition at 50 µM [1, 3]: 104%
- inhibition at 50 µM [1, 4]: 106%
- HepG2 Tox% @ 50 uM rep1 (HepG2-A16-CD81EGFP cells): 101%
- HepG2 Tox% @ 50 uM rep2 (HepG2-A16-CD81EGFP cells): 101%

SMILES: CN(C)CCCNCc1ccc(-c2ccc(F)c(Cl)c2)o1 [MMV020505]
- inhibition at 50 µM [1, 3]: 98%
- inhibition at 50 µM [1, 4]: 98%
- HepG2 Tox% @ 50 uM rep1 (HepG2-A16-CD81EGFP cells): 96%

SMILES: OC(CNC1CCCCC1)Cn1c2ccc(I)cc2c2cc(I)ccc21 (centres unmarked) [MMV665882]
- inhibition at 50 µM [1, 3]: 103%
- inhibition at 50 µM [1, 4]: 104%
- HepG2 Tox% @ 50 uM rep1 (HepG2-A16-CD81EGFP cells): 100%

SMILES: COc1ccccc1C(=O)ON=C(N)Cc1cccc2ccccc12 [MMV666686]
- inhibition at 50 µM [1, 3]: 104%
- inhibition at 50 µM [1, 4]: 104%
- HepG2 Tox% @ 50 uM rep1 (HepG2-A16-CD81EGFP cells): 101%

SMILES: CCCCCn1c(=N)n(CC(O)COc2cccc(C)c2)c2ccccc21 (centres unmarked) [MMV000444]
- inhibition at 50 µM [1, 3]: 102%
- inhibition at 50 µM [1, 4]: 103%
- HepG2 Tox% @ 50 uM rep1 (HepG2-A16-CD81EGFP cells): 100%

SMILES: COc1ccc(Nc2cc(C)nc(NCc3ccccc3)n2)cc1 [MMV006825]
- inhibition at 50 µM [1, 3]: 100%
- inhibition at 50 µM [1, 4]: 100%
- HepG2 Tox% @ 50 uM rep1 (HepG2-A16-CD81EGFP cells): 97%

SMILES: O=C1c2ccc3c4c(ccc(c24)C(=O)N1CCCCO)C(=O)N(CCCCO)C3=O [MMV009085]
- inhibition at 50 µM [1, 3]: 103%
- inhibition at 50 µM [1, 4]: 104%
- HepG2 Tox% @ 50 uM rep1 (HepG2-A16-CD81EGFP cells): 102%

SMILES: CCOc1ccc(Nc2c3ccccc3nc3ccccc23)cc1 [MMV000304]
- inhibition at 50 µM [1, 3]: 104%
- inhibition at 50 µM [1, 4]: 104%
- HepG2 Tox% @ 50 uM rep1 (HepG2-A16-CD81EGFP cells): 102%

SMILES: C[C@@H]1CN([C@@H](C)CO)C(=O)c2cccc(NC(=O)c3ccc(-c4nccs4)cc3)c2O[C@@H]1CN(C)C(=O)Nc1ccc(C(F)(F)F)cc1 [BRD-K43504903-001-01-1]
- normalised signal at concentration 0.000508053 (first series) ([2]; concentration 0.000508053, first series): 0.8756
- normalised signal at concentration 0.000508053 (second series) ([2]; concentration 0.000508053, second series): 0.7942
- normalised signal at concentration 0.00152416 (first series) ([2]; concentration 0.00152416, first series): 0.8514
- normalised signal at concentration 0.00152416 (second series) ([2]; concentration 0.00152416, second series): 0.7934
- normalised signal at concentration 0.00457247 (first series) ([2]; concentration 0.00457247, first series): 0.8815
- normalised signal at concentration 0.00457247 (second series) ([2]; concentration 0.00457247, second series): 0.6886
- normalised signal at concentration 0.0137174 (first series) ([2]; concentration 0.0137174, first series): 0.7217
- normalised signal at concentration 0.0137174 (second series) ([2]; concentration 0.0137174, second series): 0.708
- normalised signal at concentration 0.0411523 (first series) ([2]; concentration 0.0411523, first series): 0.6989
- normalised signal at concentration 0.0411523 (second series) ([2]; concentration 0.0411523, second series): 0.7835
- normalised signal at concentration 0.123457 (first series) ([2]; concentration 0.123457, first series): 0.7701
- normalised signal at concentration 0.123457 (second series) ([2]; concentration 0.123457, second series): 0.8493
- normalised signal at concentration 0.37037 (first series) ([2]; concentration 0.37037, first series): 0.9239
- normalised signal at concentration 0.37037 (second series) ([2]; concentration 0.37037, second series): 0.7292
- normalised signal at concentration 1.11111 (first series) ([2]; concentration 1.11111, first series): 0.7039
- normalised signal at concentration 1.11111 (second series) ([2]; concentration 1.11111, second series): 0.8779
- normalised signal at concentration 3.33333 (first series) ([2]; concentration 3.33333, first series): 0.8563
- normalised signal at concentration 3.33333 (second series) ([2]; concentration 3.33333, second series): 1.012
- normalised signal at concentration 10 (first series) ([2]; concentration 10, first series of dose columns): 0.4042
- normalised signal at concentration 10 (second series) ([2]; concentration 10, second series of dose columns): 0.5157
- IC50 ([2]; read-out: PbLuc_IC50, sheet "2nd round", Broad compounds, dose response top concentration 10): > 10 µM
- PbLuc_max_inhibition (%) ([2]; sheet "2nd round"): 60%
- IC50 (HepG2-A16-CD81EGFP cells; read-out: Tox_IC50, sheet "2nd round", HepG2 cytotoxicity): > 10 µM
- Tox_max_inhibition (%) (HepG2-A16-CD81EGFP cells; sheet "2nd round"): 21%

— PMC4890880 (ACS infectious diseases, 2016)
